Consider 1 compound from paper PMC7814854 (Biochemistry, 2019).

The test deals with CMP-sialic acid synthetase (NmCSS) (Neisseria meningitidis, UniProt P0A0Z8). Description: X-ray crystal structure. In kind it is biochemical.
CMP-sialic acid synthetase (NmCSS), sequence (P0A0Z8 whole entry): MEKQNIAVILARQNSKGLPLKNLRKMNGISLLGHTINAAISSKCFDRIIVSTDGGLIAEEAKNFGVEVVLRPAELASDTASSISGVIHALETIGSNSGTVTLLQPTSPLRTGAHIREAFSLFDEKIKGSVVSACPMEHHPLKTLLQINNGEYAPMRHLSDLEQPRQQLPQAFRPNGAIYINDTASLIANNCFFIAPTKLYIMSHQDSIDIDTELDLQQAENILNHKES

The IC50 is the concentration that gives 50% inhibition. Low values mean greater potency in that assay, high ones weaker potency in that assay. `CC(=O)N[C@H]1[C@H]([C@H](O)[C@H](O)CO)OC(C(=O)O)=C[C@@H]1O` [Neu5Ac2en, 2-deoxy-2,3-dehydro-N-acetylneuraminic acid] came in with an IC50 of 130 ± 10 µM.
